In paper PMC10482267, “Safety, tolerability, pharmacokinetics, and pharmacodynamics of single and multiple doses of aficamten in healthy Chinese participants: a randomized, double-blind, placebo-controlled, phase 1 study” (Frontiers in Pharmacology, 2023):
Read-outs that look alike come from different tables or passages of the source.

Assay: Urine pharmacokinetics of aficamten, MD cohort
Assay type: in vivo, human
Conditions: for Ae(0–24) (amount excreted unchanged in urine) / CL renal: MD 5 mg, mean ± SD; for CL renal: human, urine, oral, 5 mg, read-out: CLr (renal clearance) (converted)
Procedure: Blood samples (4 mL) for plasma PK analysis of aficamten and its metabolites (mono-hydroxylated derivative CK-3834282 and its diastereomer CK-3834283) were collected into K2EDTA tubes in the SAD cohorts at the following time points: at pre-dose and at 0.25, 0.5, 1, 1.5, 2, 2.5, 3, 4, 6, 8, 12, 16, 24, 36, 48, 72, 96, and 216 h post-dose. In the MD cohort, blood samples were collected at pre-dose and at 0.25, 0.5, 1, 1.5, 2, 2.5, 3, 4, 6, 8, 12, and 16 h post-dose on day 1; at pre-dose and at 1.5 h post-dose on day 2, days 4–6, and day 9; at pre-dose on day 3, days 7–8, and days 10–13; at pre-dose and at 0.25, 0.5, 1, 1.5, 2, 2.5, 3, 4, 6, 8, 12, 16, 24, 36, 48, 72, 168, and 216 h post-dose on day 14. After collection, blood samples were centrifuged at 1700 g for 10 min at 4°C ± 2°C; plasma was aliquoted and stored at −80°C ± 20°C until analyzed. Meanwhile, samples for urine PK analysis of aficamten were collected in the MD cohort as follows: pre-dose, 0–4 h, 4–8 h, 8–12 h, and 12–24 h on days 1 and 14, respectively.
The samples were determined using a validated ultra-performance liquid chromatography-tandem mass spectrometry (UPLC-MS/MS) method. The detection was performed on a tandem mass spectrometer in the electrospray ionization (ESI)-positive mode. The multiple reactions monitoring (MRM) mode was applied to monitor the following ion transitions: m/z 338.2→213.2 for aficamten and m/z 354.3→ 229.3 for metabolite CK-3834282 and its diastereomer CK-3834283. Note that the diastereomers were separated from chromatography during the analysis. The calibration curves of the plasma and urine samples were linear, ranging from 1 to 500 ng/mL, and the intra- and inter-run accuracies (RE%) and precisions (RSD%) were within ±15%. In addition, the selectivity, matrix effect, extraction recovery, carryover, and stability at different conditions were also fully evaluated.
The urine PK parameters (MD cohort) were calculated as follows: CLR (renal clearance), Ae (amount of drug excreted unchanged in the urine), and Fe (percentage of drug excreted unchanged in the urine).

## CCc1nc(-c2ccc3c(c2)CC[C@H]3NC(=O)c2cnn(C)c2)no1 [aficamten]
Day 1, urine
  Ae(0–24) (amount excreted unchanged in urine): 3.2 ± 2.6 µg
  CL renal: 0.158 mL/min
Day 14, urine
  Ae(0–24) (amount excreted unchanged in urine): 18.5 ± 8.0 µg
  CL renal: 0.228 mL/min
Multiple doses of 5 mg
  drug excreted with urine in unchanged form: about 0.37%
